Assay results as given in ChEMBL document CHEMBL1201862, “PubChem BioAssay data set” (2004).
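Compound exposure: 48 hours, 5 concentrations, 96-well plates. GI50 marks 50% less growth.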 Calls of active or inactive are those of the source. Cut-off read from the data, not from the text of the source: active = GI50 up to about 1.1 µM and inactive = higher.

Key:
Assay in all cases: growth of human tumour cells (NCI), 48 h
[1] = tested on: M14
[2] = tested on: Malme-3M
[3] = tested on: HCT-116
[4] = tested on: MOLT-4
[5] = tested on: SK-MEL-28
[6] = tested on: SN12C
[7] = tested on: SW-620
[8] = tested on: A549
[9] = tested on: A498
[10] = tested on: U-251
[11] = tested on: SR
[12] = tested on: HCT-15
[13] = tested on: MDA-MB-231
[14] = tested on: NCI-H460
[15] = tested on: T47D
[16] = tested on: ACHN
[17] = tested on: UO-31
[18] = tested on: DU-145
[19] = tested on: NCI/ADR-RES
[20] = tested on: HOP-92

COC1/C=C\C=C(/C)C(=O)NC2=CC(=O)C(N)=C(CC(C)CC(OC)C(O)C(C)C=C(C)C1OC(N)=O)C2=O (stereo unspecified)
GI50 [1]: 0.0204 µM (active)
GI50 [2]: 0.0231 µM (active)
GI50 [3]: 0.0233 µM (active)
GI50 [4]: 0.15 µM (active)
GI50 [5]: < 0.0266 µM (active)
GI50 [6]: 0.017 µM (active)
GI50 [7]: < 0.0133 µM (active)
GI50 [8]: 0.0216 µM (active)
GI50 [9]: 19.1 µM (inactive)
GI50 [10]: < 0.01 µM (active)
GI50 [11]: 0.0161 µM (active)
GI50 [12]: 0.333 µM
GI50 [13]: < 0.0187 µM (active)
GI50 [14]: < 0.01 µM (active)
GI50 [15]: 0.653 µM (active)
GI50 [16]: 0.0935 µM (active)
GI50 [17]: 0.184 µM (active)
GI50 [18]: < 0.0199 µM (active)
GI50 [19]: 28.7 µM (inactive)
GI50 [20]: 0.0156 µM (active)

CCOc1cc(C(c2c(O)c3ccccc3oc2=O)c2c(O)c3ccccc3oc2=O)ccc1OC
GI50 [1]: 19.1 µM (inactive)
GI50 [2]: 19.8 µM (inactive)
GI50 [3]: 19.5 µM (inactive)
GI50 [4]: 35.9 µM (inactive)
GI50 [5]: 28.1 µM (inactive)
GI50 [6]: 18.8 µM (inactive)
GI50 [7]: 35.4 µM (inactive)
GI50 [8]: 38.6 µM (inactive)
GI50 [9]: 19.6 µM (inactive)
GI50 [10]: 15.8 µM (inactive)
GI50 [11]: 28.1 µM (inactive)
GI50 [12]: 21.3 µM
GI50 [13]: 16 µM (inactive)
GI50 [15]: 16.1 µM (inactive)
GI50 [16]: 18 µM (inactive)
GI50 [17]: 22.8 µM (inactive)
GI50 [18]: 19.3 µM (inactive)
GI50 [19]: 27.4 µM (inactive)
GI50 [20]: 16.5 µM (inactive)

CC1=C(C#N)C2C(=C(C)N1)C(N)=Nc1ccccc12 (stereo unspecified)
GI50 [1]: 36.4 µM (inactive)
GI50 [2]: 37.8 µM (inactive)
GI50 [3]: 32.6 µM (inactive)
GI50 [4]: 33.2 µM (inactive)
GI50 [5]: 63.4 µM (inactive)
GI50 [6]: 38.5 µM (inactive)
GI50 [7]: 48.1 µM (inactive)
GI50 [8]: 73.1 µM (inactive)
GI50 [9]: 22.3 µM (inactive)
GI50 [11]: 41.1 µM (inactive)
GI50 [12]: 85.5 µM
GI50 [13]: 31.8 µM (inactive)
GI50 [14]: 44.4 µM (inactive)
GI50 [15]: 31.4 µM (inactive)
GI50 [16]: 47.6 µM (inactive)
GI50 [18]: 88.7 µM (inactive)
GI50 [19]: > 100 µM (inactive)
GI50 [20]: 12.1 µM (inactive)

Cc1c(C(=O)N2CCN(c3ccc([N+](=O)[O-])cc3)CC2)[n+]([O-])c2cc(Cl)c(Cl)cc2[n+]1[O-]
GI50 [1]: 27.1 µM (inactive)
GI50 [2]: 21.8 µM (inactive)
GI50 [3]: 19 µM (inactive)
GI50 [4]: 72.8 µM (inactive)
GI50 [5]: 26.4 µM (inactive)
GI50 [6]: 18.4 µM (inactive)
GI50 [7]: 21.6 µM (inactive)
GI50 [8]: 20.2 µM (inactive)
GI50 [9]: 7.19 µM (inactive)
GI50 [10]: 20.9 µM (inactive)
GI50 [11]: 21.2 µM (inactive)
GI50 [12]: 17.1 µM
GI50 [13]: 21.2 µM (inactive)
GI50 [14]: 19.5 µM (inactive)
GI50 [15]: 17.1 µM (inactive)
GI50 [16]: 13.5 µM (inactive)
GI50 [18]: 19.8 µM (inactive)
GI50 [19]: 16.8 µM (inactive)
GI50 [20]: 15.2 µM (inactive)

CC1=NN(c2cccc(Cl)c2)C2(C1=Cc1cccs1)C(Cl)C(=O)N2c1nc2ccccc2s1 (stereo unspecified)
GI50 [1]: 34.8 µM (inactive)
GI50 [3]: 18.4 µM (inactive)
GI50 [4]: 22.3 µM (inactive)
GI50 [5]: 39.4 µM (inactive)
GI50 [7]: 38.4 µM (inactive)
GI50 [8]: 21.9 µM (inactive)
GI50 [9]: 21.8 µM (inactive)
GI50 [10]: 15.1 µM (inactive)
GI50 [11]: 18.5 µM (inactive)
GI50 [12]: 20.6 µM
GI50 [13]: 19.7 µM (inactive)
GI50 [14]: 20 µM (inactive)
GI50 [15]: 28.6 µM (inactive)
GI50 [16]: 20.8 µM (inactive)
GI50 [17]: 23.9 µM (inactive)
GI50 [18]: 33.8 µM (inactive)
GI50 [19]: 21.9 µM (inactive)
GI50 [20]: 21.2 µM (inactive)

Nc1nc(S)c2c(N)n[nH]c2c1C(=O)Nc1ccc(Cl)cc1
GI50 [1]: 45.4 µM (inactive)
GI50 [2]: > 100 µM (inactive)
GI50 [3]: > 100 µM (inactive)
GI50 [4]: > 100 µM (inactive)
GI50 [5]: > 100 µM (inactive)
GI50 [6]: > 100 µM (inactive)
GI50 [7]: 29.6 µM (inactive)
GI50 [8]: > 100 µM (inactive)
GI50 [9]: > 100 µM (inactive)
GI50 [10]: > 100 µM (inactive)
GI50 [11]: 24.3 µM (inactive)
GI50 [12]: 74.8 µM
GI50 [13]: > 100 µM (inactive)
GI50 [14]: 54.1 µM (inactive)
GI50 [15]: 44.6 µM (inactive)
GI50 [17]: 74 µM (inactive)
GI50 [18]: 47 µM (inactive)
GI50 [19]: > 100 µM (inactive)
GI50 [20]: > 100 µM (inactive)

O=C(CCCCCCCCC(=O)N1C(=O)CC(=O)N(c2cccc(Cl)c2)C1=S)N1C(=O)CC(=O)N(c2cccc(Cl)c2)C1=S
GI50 [1]: 38.9 µM (inactive)
GI50 [2]: 66.1 µM (inactive)
GI50 [3]: 34.2 µM (inactive)
GI50 [4]: 20 µM (inactive)
GI50 [6]: 40.2 µM (inactive)
GI50 [8]: 32.5 µM (inactive)
GI50 [9]: 39.9 µM (inactive)
GI50 [10]: 35.6 µM (inactive)
GI50 [11]: 26.1 µM (inactive)
GI50 [12]: 43.5 µM
GI50 [13]: 24.6 µM (inactive)
GI50 [14]: 45.9 µM (inactive)
GI50 [15]: 37 µM (inactive)
GI50 [16]: 46.2 µM (inactive)
GI50 [17]: 27.5 µM (inactive)
GI50 [18]: 89.7 µM (inactive)
GI50 [19]: 27.2 µM (inactive)
GI50 [20]: 20.5 µM (inactive)
